In PMC8845381 (BMC Microbiology, 2022):
≈ marks a conversion by molar mass, not a printed value. Where “and” joins values, the source holds several entries; their conditions need not be identical. Equal entries are not always repeated. Where two headings read alike, the source gives them in different places. Marks after values point to notes of the source that are not given here. Each block holds one molecule with its values, some of them ahead of it.

What was measured:
[1] = tested on: L. major amastigotes in J774.A1 macrophages; assay: Parasite load in macrophage (anti-amastigote activity); type: cell-based, Leishmania major; details: for Number of amastigotes: mean per macrophage
Experimental: For the assessment of the parasite load, 2 × 10^5 of J774.A1 macrophages cells were cultured in a 24-well microtiter plate containing a 13 mm-diameter coverslip per well, and supplemented RPMI medium supplemented with 10% FCS and 100 U/ml penicillin and 100 μg/mL streptomycin and incubated at 37 °C in CO2 5% for 24 h. Promastigotes of L. major at the stationary phase were seeded into each well (1:10) and incubated for 24 h and the non-internalized parasites were removed by aspirating the supernatant. […] The number of infected macrophages and the number of amastigotes per macrophage were determined by counting the number of parasites in 100 macrophages in a neubauer chamber.

human blood = type: cell-based; details: 30 min at 37 °C
Experimental: In vitro hemolytic activity was done by spectrophotometric method. In this study, the fresh human blood samples obtained from returned unused blood bags in the blood bank (Iranian Blood Transfusion Organization) were used. […] The mixture was incubated for 30 min at 37 °C and then centrifuged at 1500 rpm for 10 min. The free hemoglobin in the supernatant was analyzed by UV–Vis spectrophotometer at 540 nm. The PBS and distilled water (DW) were used as minimal and maximal hemolytic controls.

L929 cell line = assay: Cytotoxicity assay (MTT); type: cell-based; details: for Cytotoxicity assay Percent (%): L929, 24 h
Experimental: L929 cell line was seeded into 96-well microtiter plates (Nunc, Roskilde, Denmark) in DMEM (100 μL) supplemented with 10% FBS and 1% penicillin–streptomycin solution. Cells then were incubated at 37 °C in a humidity of 95% and 5% CO2 for 24 h. […] After 24 h of incubation time, 10 μL of MTT solution was added to each well. After 3 h of incubation at 37 °C, the supernatant was removed and 100 μL of DMSO was added. Finally, the absorbance at 570 nm was measured by a microtiter plate reader (BioTek ELX800, Winooski, VT, USA) and the viability was calculated by the below formula [21]: Viability%=ODTest/ODControl×100

L. major promastigotes [2] = assay: In vitro assay: live and dead promastigotes counted after eosin staining; type: cell-based, Leishmania major (Iranian strain MRHO/IR/75/ER); details: for effectiveness (mortality rate of promastigotes) compared with Amphotericin B: P < 0.05
Experimental: L. major promastigotes, Iranian strain MRHO/IR/75/ER, were provided by the department of parasitology, Tehran University of Medical Sciences, Tehran, Iran and were cultivated in RPMI-1640 medium supplemented with 10% FBS and penicillin–streptomycin solution at 24 °C with frequent passages every three days.
The experiments were done separately for 12, 24, 48, and 72 h in a 96-well microtiter plate. At first, 100 μL RPMI-1640 medium containing 10^5 promastigotes (at log phase) was added to each well. […] Amphotericin B (20 mg/mL) as a positive control was considered in three wells, in a concentration of 12 μM. In another row, 100 µL of medium containing parasites with phosphate buffered saline (PBS) without the drug was added as the negative controls. The plate was incubated at 24 °C for 12, 24, 48, and 72 h.

Leishmania major = assay: In vivo assay: lesion size in infected BALB/c mice, topical treatment; details: after 28 days
Experimental: This study was performed in accordance with ARRIVE guidelines (https://arriveguidelines.org). Female BALB/c mice (6–7 weeks old) purchased from Razi Rad Industries were used for experimentation and kept in standard boxes under controlled light and temperature conditions. Overall, 1.6 × 10^6 promastigotes, in the stationary phase, were injected subcutaneously in the base of the tail of mice. The mice were divided into 10 groups and five mice were allocated in each group. […] After three weeks, treatment was started when local lesions were apparent. […] Topical treatment was used on each mouse every 28 continuous days. The diameter of lesions was measured weekly before and after treatment by dial micrometer (Starrett Dial indicator, model 25A, USA) and compared with that of untreated lesions. The ulcer size was determined according to the following formula (a: Length and b: width): Lesionsize=a+b/2

[3] = tested on: nitric oxide (NO) production by infected murine peritoneal macrophages; assay: Indirect measurement of nitric oxide production (Griess reaction); type: cell-based
Experimental: NO levels were evaluated using Griess reaction and compared to the untreated macrophages. In a 96-well microtiter plate, 2 × 10^5 murine peritoneal macrophages were cultured at 37 °C in 5% CO2 for 4 h to allow cell adhesion. 100 µL of new medium containing promastigotes in stationary phase (10 promastigotes per macrophage) was added. […] After the incubation times, the level of NO was analyzed using cell culture supernatant by an ELISA plate reader at 550 nm.

L. major promastigotes [4] = assay: Apoptosis assay (Annexin V-FITC/PI flow cytometry); type: cell-based; details: Leishmania major, 24 h, read-out: viability rates of cells (flow cytometry)
Experimental: They were incubated at 24 °C for 24 h. Then cells were washed twice with PBS and 1 × 10^5 cells were re-suspended in 100 μL binding buffer and incubated with 5 μL of Annexin V-FITC and propidium iodide (PI) as a counterstain for 15 min at room temperature in darkness, according to the manufacturer's instructions (BD Biosciences, San Diego, CA, USA). Finally, the percent of apoptotic and necrotic cells was evaluated by flow cytometry (Becton Dickinson) and data were analyzed using Flowjo software (version 7).

[5] = Characterization by dynamic light scattering (size, PDI, zeta potential); type: physicochemical; details: DLS
Experimental: The homogenization followed by the probe ultra-sonication method was performed for preparing the nanoparticles. […] Then, the hot lipid phase was dispersed in the 1/3 aqueous solution containing 500 mg of hydrophilic surfactant (Tween 80), heated at the same temperature, homogenized by high-shear homogenizer at 13,000 rpm for 7 min (D-91126 Schwabach, Heidolph, Germany), and then sonicated by a probe sonicator (Bandelinsonopuls, 3100, Berlin, Germany) at power levels of 3.5 W for 5 min to form a coarse pre-emulsion. The mixture was then dispersed into 2/3 of an ice-cold surfactant solution preserved in an ice bath. The final mixture was sonicated again at power levels of 0.6 W for 10 min while dipped in the ice bath. This cooling phase encouraged the formation of lipid nanoparticles.

L. amazonensis = details: in vitro; cited from earlier work
L. major = details: in vitro; cited from earlier work
Candida albicans = details: cited from earlier work
[6] = tested on: L. major intracellular amastigotes; details: 10, 50, and 100 µg/mL; cited from earlier work
[7] = tested on: L. amazonensis promastigotes; parameters: method as in PMID 26517558; details: in vitro; cited from earlier work
[8] = 20 µg/mL, 0 h (Before treatment)
[9] = 50 µg/mL, 0 h (Before treatment)
[10] = 100 µg/mL, 0 h (Before treatment)
[11] = 200 µg/mL, 0 h (Before treatment)
[12] = 400 µg/mL, 0 h (Before treatment)

Compound: C[C@@H]1[C@H](O)[C@@H](C)/C=C/C=C/C=C/C=C/C=C/C=C/C=C/[C@H](O[C@@H]2O[C@H](C)[C@@H](O)[C@H](N)[C@@H]2O)C[C@@H]2O[C@](O)(C[C@@H](O)C[C@@H](O)[C@H](O)CC[C@@H](O)C[C@@H](O)CC(=O)O[C@H]1C)C[C@H](O)[C@H]2C(=O)O [Amphotericin B, reference compound]
MQ infectivity (%) [1, 8]: 73.4% | Number of amastigotes [1, 8]: 15.7 | MQ infectivity (%) ([1]; 20 µg/mL, 24 h): 34.5^* % | Number of amastigotes ([1]; 20 µg/mL, 24 h): 4.3^* | MQ infectivity (%) ([1]; 20 µg/mL, 48 h): 42.7^* % | Number of amastigotes ([1]; 20 µg/mL, 48 h): 0.4^** | Hemolytic assay Percent (%) (human blood; concentration not given): 21.6% and 21.6 ± 5.3% | Cytotoxicity assay Percent (%) (L929 cell line; concentration not given): 19.5 ± 0.6%

IC50 (L. major promastigotes [2]; Leishmania major, promastigotes of L. major after 12 h): 16.2 µg/mL (≈ 71.1 µM) | average size [5]: 432.7 ± 26 nm
Compound: Oc1ccc(/C=C/c2cc(O)cc(O)c2)cc1 [Resveratrol, 3,5,4' -trihydroxy-trans-stilbene]
promastigotes eliminated (L. major promastigotes [2]; 100 µg/mL, 48 h, 'In this study' (sentence follows description of ref 17)): 100% | effectiveness (mortality rate of promastigotes) compared with Amphotericin B (L. major promastigotes [2]; after 12 h, 50, 100, 200, and 400 µg/mL): significantly more effective than Amphotericin B | effectiveness (mortality rate of promastigotes) compared with Amphotericin B (L. major promastigotes [2]; after 24 h, all concentrations): significantly more effective than Amphotericin B | anti-leishmanial activity compared with positive control (Amphotericin B) (L. major promastigotes [2]; after 48 h, resveratrol 50-400 µg/mL, RNE 100-400 µg/mL, not significant (P > 0.05)): better anti-leishmanial activity than positive control | MQ infectivity (%) [1, 9]: 76.4% | Number of amastigotes [1, 9]: 17.6 | MQ infectivity (%) ([1]; 50 µg/mL, 24 h): 68.4^* % | Number of amastigotes ([1]; 50 µg/mL, 24 h): 12.5 | MQ infectivity (%) ([1]; 50 µg/mL, 48 h): 55.3% | Number of amastigotes ([1]; 50 µg/mL, 48 h): 9.8^* | MQ infectivity (%) [1, 10]: 81.0% | Number of amastigotes [1, 10]: 18.3 | MQ infectivity (%) ([1]; 100 µg/mL, 24 h): 56.2^* % | Number of amastigotes ([1]; 100 µg/mL, 24 h): 12.1 | MQ infectivity (%) ([1]; 100 µg/mL, 48 h): 41.9^* % | Number of amastigotes ([1]; 100 µg/mL, 48 h): 9.5^* | MQ infectivity (%) [1, 11]: 78.3% | Number of amastigotes [1, 11]: 18.0 | MQ infectivity (%) ([1]; 200 µg/mL, 24 h): 42.6^* % | Number of amastigotes ([1]; 200 µg/mL, 24 h): 6.7^* | MQ infectivity (%) ([1]; 200 µg/mL, 48 h): 35.5^* % | Number of amastigotes ([1]; 200 µg/mL, 48 h): 2.4^* | MQ infectivity (%) [1, 12]: 79.6% | Number of amastigotes [1, 12]: 16.2 | MQ infectivity (%) ([1]; 400 µg/mL, 24 h): 31.4^* % | Number of amastigotes ([1]; 400 µg/mL, 24 h): 3.3^* | MQ infectivity (%) ([1]; 400 µg/mL, 48 h): 25.8^* % | Number of amastigotes ([1]; 400 µg/mL, 48 h): 0.5^** | mean lesion size (Leishmania major; 15 mg/kg BW, topical, PBS control 7.5 and 7.2 mm): 0.0 mm | anti-leishmanial activity (lesion size) compared with Amphotericin B (Leishmania major; all concentrations, not significant (P > 0.05)): better anti-leishmanial activity | NO production by macrophages compared with Amphotericin B ([3]; resveratrol 50 and 100 µg/mL, RNE 50, 100, 200, and 400 µg/mL, P < 0.05): decreased the NO production even more than Amphotericin B | production of NO compared with the control group ([3]; resveratrol ≥ 200 µg/mL, 24 h, control PBS 7.23 μM, DMSO 6.73 μM): decreased the production of NO | Hemolytic assay Percent (%) (human blood; 100 µg/mL): 17.5 ± 2.4% | Hemolytic assay Percent (%) (human blood; 200 µg/mL): 19.6 ± 3.7% | Hemolytic assay Percent (%) (human blood; 400 µg/mL (highest concentration)): 25.2 ± 5.3% | viability at 200 µg/mL (L. major promastigotes [4]; 200 µg/mL): 87.9% | viability at 400 µg/mL (L. major promastigotes [4]; 400 µg/mL): 71.4% | cytotoxicity against the L929 cell line (in words) (L929 cell line): no cytotoxicity | Cytotoxicity assay Percent (%) (L929 cell line; 100 µg/mL): 8.4 ± 1.6% | Cytotoxicity assay Percent (%) (L929 cell line; 200 µg/mL): 14.8 ± 3.0% | Cytotoxicity assay Percent (%) (L929 cell line; 400 µg/mL): 18.7 ± 4.6% | IC50 (L. amazonensis): 27 µM | IC50 (L. major): 65.5 µM | IC50 (Candida albicans): 10 to 20 µg/mL | effect on intracellular amastigote [6]: resistant

Compound: Oc1cc(O)cc(/C=C/c2ccc(O)cc2O)c1 [oxyresveratrol]
IC50 [7]: 65 µg/mL (≈ 266 µM)
